The numbers were not newly measured in patent US6548645B1, “Immunoassay for 2-oxo-3-hydroxy LSD” (Microgenetics Corporation, priority 1999, dated 2003), which cites them from elsewhere.

For data set [1], the system named is antibodies generated by LSD immunogens (LSD analogs derivatized through N-1 or N-6 conjugated to a carrier). As to conditions: molar ratio; relative to LSD; antibodies of Salamone et al., Bioconjugate Chem 8:896-905 (1997).
The conditions of data set [2]: doses as low as.
For data set [3] the following is noted: man; calculated.

Consider `CCN(CC)C(=O)C1C=C2c3cccc4c3C(O)(CC2N(C)C1)C(=O)N4` (stereo not drawn) [2PATENT -oxo-3-hydroxy-LSD, 2-oxo-3-hydroxy-LSD], for which the cross-reactivity in data set [1] was 30-45%.

For the compound `CCN(CC)C(=O)[C@@H]1C=C2c3cccc4[nH]cc(c34)C[C@H]2N(C)C1` [LSD], the “oral dose causing central nervous system disturbances (hallucinations, distortions in sensory perception, mood changes)” value in data set [2] was no less than 25 µg. Moreover, in data set [3], the plasma half-life entry is recorded as “about 3 hours”.
